Patent US8211874B2, “Inhibition of thrombin generation” (Galderma Laboratories Inc., priority 2005, dated 2012)

Columns and labels:
thrombin generation = test: Thrombin generation in platelet poor plasma (Thrombinoscope, Innovin or Actin trigger); type: biochemical, human; settings: COL-3 final concentration 10.72, 21.44 and 536 μl, Innovin 5 pM or Actin 1:20 trigger, FIGS. 1A and 1B
Experimental: (§1) COL-3 was dissolved in DMSO (dimethyl sulfoxide, Sigma, St. Louis, Mo.). Blood was drawn from 5 consented healthy volunteers into 3.2% citrate tubes.
For thrombin generation experiments 80 μl of platelet poor plasma containing either saline, DMSO or COL-3 at final concentration of […] and thrombin generation trigger (Innovin 5 pM, or Actin 1:20 dilution, Dade Behring, Marburg, Germany) were added to 96 well microtiter plate (Microfluor-2, Thermolabsystems, Franklin Mass.) followed by 20 μl of calcium-substrate (Z-GGR-AMC, Bachem, Switzerland) buffer. The reaction was monitored by measuring increase in fluorescence at 390 nm excitation and 460 nm emission wavelengths and the acquired data was processed for lag time and peak thrombin generation parameters using Thrombinoscope software (Thrombinoscope BV, Maastricht, the Netherlands). The data were imported into excel file and the % decrease in thrombin generation due to COL-3 was calculated. Data were analyzed using repeated ANOVA p<0.05 was considered significant.

plasma PT = test: Prothrombin time (PT) in plasma; type: biochemical, human; settings: COL-3 10.72, 21.44 and 536 μM, FIG. 2
Experimental: as §1
(§2) Maximum amplitude (MA), angle, and R-value were recorded. For prothrombin time (PT) and activated partial thromboplastin time (aPTT) blood samples were centrifuged for 15 min at 3000× g to obtain plasma and COL-3 was added to a final concentration of 10.72, 21.44 and 536 μM. Testing was done using Start 4instrument (Diagnostic Stago, Parsippainy, N.J.) along with appropriate standards and controls.

plasma aPTT = test: Activated partial thromboplastin time (aPTT) in plasma; type: biochemical, human; settings: COL-3 10.72, 21.44 and 536 μM, FIG. 2
Experimental: as §1, §2

platelets = test: Platelet aggregation (light transmittance aggregometer, ADP and collagen activators); type: cell-based, human; settings: 200,000 platelets/μl; ADP and collagen (20 μM) as activators
Experimental: as §1
For platelet aggregation studies platelet rich and platelet poor plasma was separated by centrifugation. All platelet studies were performed in a total volume of 500 μl with 200,000 platelets/μl. Platelet aggregation was quantitated by measuring changes in light transmittance in dual channel aggregometer (Chronolog Corp. Havertown, Pa.) using ADP (adenosine di-phosphate) and collagen (final concentration 20 μM) as activators.

whole blood = test: TEG (Thromboelastograph) of whole blood activated with tissue factor; type: cell-based, human; settings: COL-3 10.72 or 21.44 μM, TF 4 pM
Experimental: as §1
For TEG (Thromboelastograph, Haemoscope Corp, Skokie Ill.) whole blood samples (0.34 ml) were added to cups along with 10 μl of saline (control), DMSO, or COL-3 (final concentration of 10.72 or 21.44 μM). After addition of calcium chloride (20 μl of 0.2 M), samples were activated with TF (tissue factor) (4 pM) and TEGs (thrombelastogram) were run according to manufacturers directions.
as §2

[1] = Plasma concentration in humans after daily dose; type: in vivo; settings: dose of about 10 to about 20 mg/day

Question: For `NC(=O)C1=C(O)C[C@@H]2C[C@@H]3Cc4cccc(O)c4C(=O)C3=C(O)[C@]2(O)C1=O` [COL-3, 6-demethyl-6-deoxy-4-de(dimethylamino)tetracycline], which thrombin generation (thrombin generation) is on record?
Answer: Its thrombin generation is “dose dependent reduction”.

Question: And the PT values (plasma PT)?
Answer: The PT values was “increased only at the highest concentration”.

Question: And the aPTT values (plasma aPTT)?
Answer: The aPTT values was “increased only at the highest concentration”.

Question: What about the platelet aggregation (platelets) of the same compound?
Answer: Its platelet aggregation is “no effect”.

Question: And the “TEG parameters (maximum amplitude (MA), angle, R-value)” value (whole blood)?
Answer: The value was “no effect”.

Question: What about the “plasma concentrations in humans” value [1] of the same compound?
Answer: Its value is “about 1.0 μg/ml”.
